A melting point compilation (Tetko et al.; mined from patent text by program, amines drawn as free bases though some values may be those of a salt)
Non-standard residues stand in square brackets, D forms with d. Residues, ends and D or L forms follow the SMILES beside them. ξ: configuration not given here. *: point of attachment. Cbz = O=C(OCc1ccccc1)*; Boc = CC(C)(C)OC(=O)*; Aib = CC(C)(N)C(=O)O; ξDap = NCC(N)C(=O)O

| SMILES | melting point [°C] |
| --- | --- |
| O=C(CCNc1c(C(=O)O)[nH]c2cc(Cl)ccc12)c1cccc(F)c1 | 258 to 260 |
| CC(C)(C)c1cc(C(=O)OCCN(CCO)C(=O)c2cc(C(C)(C)C)c(O)c(C(C)(C)C)c2)cc(C(C)(C)C)c1O | 174 to 178 |
| CN(C)c1ccc(C=C2SC(=S)N(CC(=O)O)C2=O)cc1 | 260 to 264 |
| CC1CCC2(OC1)OC1CC3C4CC(=O)C5CCCCC5(C)C4CCC3(C)C1C2C (stereo unspecified) | 210 to 212 |
| COc1ccc2cc(C(C)C(=O)O)ccc2c1Br (stereo unspecified) | 149 to 151 |
| CCN(CC)c1ccc(C=O)c(OCc2ccccn2)c1 | 78 to 81 |
| CC(=O)[NH+]([O-])C[C@@H]1CN(c2ccc(N3CCN(S(C)(=O)=O)CC3)c(F)c2)C(=O)O1 (stereo partly specified) | 168 to 170 |
| Cc1nc2cc(NC(=O)c3cc4cc(C(F)(F)F)cnc4n3Cc3cccc(F)c3)ccc2s1 | 204 to 206 |
| O=C1CCC(=O)c2ccccc2N1 | 168 to 170 |
| COC(=O)C(CNC(C)=O)c1cccc2ccc(OC)cc12 (stereo unspecified) | 118 to 120 |
| O=C(C=NO)Nc1cc(Cl)cc(Cl)c1 | 196 to 197 |
| Cc1nsc(CCCOc2c(C)cc(-c3noc(C(F)F)n3)cc2C)n1 | 62 to 64 |
| CCOc1ccc(-c2ccc(C#CC3(O)CN4CCC3CC4)cc2)cc1 (stereo unspecified) | 255 to 256 |
| CNC(=O)Cc1ncc2c(n1)-c1ccc(Cl)cc1C(c1ccccc1F)=NC2 | 175 to 177 |
| CCOC(=O)/C(=N\OCCN)c1csc(NC(c2ccccc2)(c2ccccc2)c2ccccc2)n1 | 126 to 144 |
| FC(F)(F)c1snc(-c2c(Cl)cc(Cl)c3nc(C4CC4)oc23)c1Cl | 110 to 111 |
| CC(C)(C)C(=O)CC(=O)c1ccccc1 | 43 to 45 |
| COC(=O)Nc1nc(-c2ccccc2)c(-c2nc3ccccc3c(=O)n2-c2ccc(Cl)cc2)s1 | > 275 |
| COc1ccc2cc3ncc(C#N)c(Nc4ccc(Cl)cc4Cl)c3cc2c1 | 215 to 217 |
| COC(=O)c1cc(-c2cccc([N+](=O)[O-])c2)cc2c1OCC2 | 53 to 57 |
| O=C(CCl)N1CCOc2ccccc21 | 107 to 108 |
| CCCCCCCCCCCNC(=O)NCc1ccccc1 | 97 |
| CCCCCCCCCCCCC1CC(=O)N(NC(=O)CCc2cc(C(C)(C)C)c(O)c(C(C)(C)C)c2)C1=O (stereo unspecified) | 55 to 60 |
| CC1NC(=O)NN=C1c1ccc(N2CCCC2)cc1 (stereo unspecified) | 276 to 281 |
| O=[N+]([O-])c1c(Br)nn(Cc2ccc(Cl)cc2)c1NCc1ccccc1 | 139 to 141 |
| NCC(O)CN1CCN(C(c2ccc(F)cc2)c2ccc(F)cc2)CC1 (stereo unspecified) | 45 to 47 |

| SMILES | melting point [°C] |
| --- | --- |
| CCCCN(CC)CC(=O)N1c2ccccc2NC(=O)c2cncnc21 | 151 to 152 |
| CC(C)NC(=O)CCC(=NNC(N)=S)c1ccccc1 | 66 to 71 |
| CCOC(=O)c1cn2c3c(c(F)c(F)cc3c1=O)OCC2CO (stereo unspecified) | 268 to 270 |
| CCOC(=O)C(=Cc1ccccc1[N+](=O)[O-])C(=O)C(OCC)OCC | 66 to 67.5 |
| Cc1cc(-c2ccc(S(C)(=O)=O)cc2)n(-c2ccc(C)c(C)c2)c1 | 126 to 128 |
| CC(C)NCC(O)COc1ccc(C2=NNC(=O)CC2)c2ccccc12 (stereo unspecified) | 131 to 135 |
| CC(C(N)=O)c1ccc(N)cc1 (stereo unspecified) | 120 to 122 |
| CS(=O)(=O)NCCc1ccc2c(c1)C(=O)c1ccccc1CO2 | 104 to 106 |
| CC(C)(C)OC(=O)C1CSC(c2cccc(F)c2F)N1 (mixture of isomers) | 120 |
| CCc1ccc(C=NNC(=O)c2ccc(O)cc2)s1 | 194 |
| O=C(NCCCNc1c([N+](=O)[O-])cnc2ccccc12)c1ccccc1 | 209 to 211 |
| N#Cc1cc(-c2ccoc2)c2ccc(OCc3cncc(-c4ccccc4)c3)cc2c1 | 138 to 140 |
| CN1CC(=O)c2ccc3ccccc3c2S1(=O)=O | 192 to 193 |
| O=C(N[C@H]1CC[C@H](CCN2CCN(c3nccc4c3CCO4)CC2)CC1)C1CCC1 | 202 |
| CCOC(=O)c1cn(-c2ccc(OC)cc2)cn1 | 93 to 94 |
| Cc1ccc2c(c1)c(N1CCN(C(=O)c3ccco3)CC1)c(C#N)c(=O)n2Cc1ccc(F)cc1 | 276 |
| Cc1cc(C)c(S(=O)(=O)OS(=O)(=O)c2c(C)cc(C)cc2C)c(C)c1 | 194 to 198 |
| O=C(O)c1cc(=O)c2cc3[nH]c(=O)oc3cc2[nH]1 | > 300 |
| CN1C(=O)C2CC(c3ccccc3)(C2)C1=O | 175 to 176 |
| CC(O)(CCCCl)c1ccc(-c2cccc(F)c2)cc1 (stereo unspecified) | 70 to 72 |
| COc1cc2c(cc1OC)[C@@H](O)[C@H](CN1CCC3(CC1)C(=O)NCN3c1ccccc1)C2 (relative stereo) | 189 to 190 |
| CN(C)Cc1ccc(CSCCNC(=C[N+](=O)[O-])NCc2ccc3c(c2)OCO3)o1 | 98 to 120 |
| CC(=O)c1ccccc1OC1SCC(O)C(O)C1O (stereo unspecified) | 102 to 105 |
| CCc1nc(-c2ccc(OCCCc3ccccc3)cc2)no1 | 41 to 42 |
| C=C(C)C(=O)OCCCCCCOc1ccc(C=Cc2ccc([N+](=O)[O-])cc2)cc1 | 90 to 95 |
| Clc1ccc(Oc2ccccc2Oc2ncc(Cl)cn2)nc1 | 108 to 111 |

| SMILES | melting point [°C] |
| --- | --- |
| CCc1c(C)c2c(c(OS(=O)(=O)c3ccc(C)cc3)c1C/C=C(\C)CCC(=O)OC)C(=O)OC2 | 101 to 103 |
| COc1cc(S(=O)(=O)N2CCN(C(=O)C=C(c3ccccc3)c3ccccc3)CC2)cc(OC)c1OC | 163 to 165 |
| c1ccc2c(c1)SSSSS2 | 56 to 58 |
| CCCCc1nc2c(N)nc3ccccc3c2n1CCOCC#Cc1ccccc1 | 133 to 140 |
| c1csc(-c2nc(COc3ccc(CCCCn4ccnc4)cc3)cs2)c1 | 108 to 109 |
| CCCCOC(=O)CCC(C)(c1ccc(O)c(C(C)(C)C)c1)c1ccc(O)c(C(C)(C)C)c1 | 123 |
| CC(C)(C)NS(=O)(=O)c1ccc([Si](C)(C)C)s1 | 102 to 104 |
| CCCCCCCCCCCCCCCCOc1cc(OC)c([N+](=O)[O-])cc1OC | 71 |
| CC(C)(C)OC(=O)Nc1ccc(-c2ccc(F)cc2)cc1NC(=O)CC(=O)c1cccc(C#N)c1 | 177 to 179 |
| O=C1c2ccccc2C(=O)N1CCc1cccc(F)c1 | 122 to 125 |
| CCC1(C)OC(c2ccc(S(C)(=O)=O)cc2)=C(c2ccc(C(C)(C)C)cc2)C1=O (stereo unspecified) | 45 |
| COc1cc(O)c2c(c1)OC(C(C)(C)C=C1N=C(c3ccccc3)OC1=O)CC2=O (stereo unspecified) | 147 to 149 |
| CCOC(=O)c1cnn(-c2ccc(C=O)cc2)n1 | 126 to 129 |
| CCOC(=O)C1(C(=O)Nc2ccc(Br)cc2C)OC1C (stereo unspecified) | 57 to 60 |
| COc1cc2nc(N)nc(-c3ccc(Br)cc3)c2cc1OC | 270 to 272 |
| CCn1c2ccccc2c2sccc(=O)c21 | 103 to 104 |
| Cc1cccc(Nc2ccccc2C=NO)c1C | 107 to 108 |
| COc1ccc2nc(Oc3c(Cl)cc(N)cc3Cl)sc2c1 | 158 to 160 |
| CCN1CCCC1CNC(=O)c1cc(OCC(F)(F)F)ccc1OCC(F)(F)F (stereo unspecified) | 78 to 80 |
| C=C(C)C(=O)Nc1cccc(OC(=O)Nc2ccccc2)c1 | 177 to 178 |
| CNC1C(O)CC2C3CCc4cc(O)cc(C)c4C3CCC21C (stereo unspecified) | 215 to 231 |
| CC(=O)c1cc(Br)no1 | 65 to 66 |
| CCCNC(=O)C1(CCCCN2CCC(NC(=O)OC(C)(C)C)CC2)c2ccccc2-c2ccccc21 | 118 to 120 |
| COc1cc2c(cc1OC)C1(CNC(=O)C1)CC2=O (stereo unspecified) | 193 to 195 |
| CC(C)(C)c1ccccc1N1CCN(C(=O)Cc2nnn[nH]2)CC1 | 236 to 237 |
| COCOCCCOn1cnc2cnc(NC=O)nc21 | 115 to 116 |

| SMILES | melting point [°C] |
| --- | --- |
| NC(=O)c1sc2nccc(N3CCCN(c4ccc(F)cc4)CC3)c2c1N | 203 to 205 |
| CCCCCCCCCCCCCCCCCCOc1cc(OCCCOc2ccccc2)cc(C(=O)OCc2ccccc2)c1 | 46 to 47 |
| COCC12CCC(O)CC1CCC1C3CCC(=O)C3(C)CCC12 (stereo unspecified) | 172 to 174 |
| Nc1nc2ccccc2c2c1ncn2CCCCNC(=O)c1cccc(C(=O)c2ccccc2)c1 | 103 to 105 |
| CC1(CN2CCN(Cc3ccc(C(F)(F)F)cc3)C(=O)C2)Cn2cc([N+](=O)[O-])nc2O1 (stereo unspecified) | 88 to 93 |
| Cc1c(C)c2c(c(C)c1O)CCC(C)(C(=S)N1CCN(c3ccc(Cl)cc3)CC1)O2 (stereo unspecified) | 154 to 155 |
| COc1ccc(OC)c(C2(Cl)C(=O)Nc3ccc(Cl)cc32)c1 (stereo unspecified) | 157 |
| Cc1ccc(-c2nc(CCCCCCOC(C)(C)c3nnn[nH]3)c(C)o2)cc1 | 87 |
| COC(=O)C(CNC(=O)OC(C)(C)C)NC(=O)C(C)(C)NC(=O)OCc1ccccc1 (stereo unspecified) (Cbz-[Aib]-[ξDap](Boc)-OMe) | 100 to 101 |
| COc1cc2c(c3c1OC(C)(C)C3)C(c1cccc(N)c1)=NC(C)(C)C2 | 131 to 134 |
| O=C(CCCCCCCNC(=O)c1cn2c3c(cccc13)CCC2)NO | 174 to 176 |
| CNc1nc(Cl)ccc1[N+](=O)[O-] | 114 |
| COc1ccc2nc(C(F)(F)F)c(C(=O)O)c(O)c2c1 | 256 |
| CCc1nc(NC)nc2c1ncn2C1CC(F)C(CO)O1 (stereo unspecified) | 99 to 100 |
| CC(C)(C)OC(=O)CN1C(=O)[C@@H](N[C@@H](CCC2CCCCC2)C(=O)O)COc2ccccc21 | 180 to 183 |
| CC(=O)C1CCC2C3CCC4CC(C)(O)CCC4(C)C3CCC12C (stereo unspecified) | 103 |
| Cc1c(OCC(C)(C)CS(N)(=O)=O)nn2ccnc2c1C | 222 to 225 |
| O=S(=O)(CCNc1ccc(Cl)c(C(F)(F)F)c1)NCCCOc1cccc(CN2CCCCC2)c1 | 115 to 120 |
| COc1ccc2c(c1)sc1nc(C=O)cn12 | 214 to 215 |
| COCCOc1c2ccccc2c(C=O)c2ccccc12 | 87 to 88 |
| CCOC(=O)C(Cc1c[nH]c2c(F)cccc12)(NC=O)C(=O)OCC | 164 to 166 |
| O=C(N[C@H](Cc1ccccc1)C(=O)O)OCc1cc2cc(-c3ccsc3)ccc2o1 | 169 to 170 |
| COc1ccc2cccc3c2c1C(=O)N(O)C3=O | 205 to 206 |
